The text below walks through data of patent US8183394B2, “Protease inhibitor precursor synthesis” (priority 2005, dated 2012).

Common to all, as to format: cell-based
In test [1] the test system is wild type laboratory HIV strain (WT IIIB-2-001). As to the kind of experiment: microbe, parasite or virus in culture. To be noted: Human immunodeficiency virus 1, 72 h, MT4-LTR-EGFP cells, three days incubation, GFP signal. The method, then:
(§1) The compounds were tested in a cellular assay using the MT4-LTR-EGFP cells for anti-viral activity.
The cellular assay was performed according to the following procedure. HIV- or mock-infected MT4-LTR-EGFP cells were incubated for three days in the presence of various concentrations of the compounds mentioned above. Upon infection, the viral tat protein activates the GFP reporter. At the end of the incubation period, the GFP signal was measured. […] The inhibitory activity of the compound was monitored on the virus-infected cells and EC50 values were calculated. These values represent the amount of the compound required to protect 50% of the cells from virus infection. The data presented in table 1 contain the pEC50 values, being the negative logarithm of the EC50-values.

Test [2] relates to HIV mutant strain Mutant 1. As to the kind of experiment: cellular assay using MT4-LTR-EGFP cells for anti-viral activity, mutant 1. As to conditions: Human immunodeficiency virus 1, 72 h, read-out: pEC50 Mutant 1 (converted). As for the experimental part: as §1
(§2) The cellular assay was performed according to the following procedure. HIV- or mock-infected MT4-LTR-EGFP cells were incubated for three days in the presence of various concentrations of the compounds mentioned above. Upon infection, the viral tat protein activates the GFP reporter. At the end of the incubation period, the GFP signal was measured. In the virus control samples (in the absence of any inhibitor) the maximal fluorescent signal was obtained. The inhibitory activity of the compound was monitored on the virus-infected cells and EC50 values were calculated. These values represent the amount of the compound required to protect 50% of the cells from virus infection. The data presented in table 1 contain the pEC50 values, being the negative logarithm of the EC50-values.

Test [3] concerns HIV mutant strain Mutant 2. The experiment in a line: cellular assay using MT4-LTR-EGFP cells for anti-viral activity, mutant 2. As to conditions: Human immunodeficiency virus 1, 72 h, read-out: pEC50 Mutant 2 (converted). As for the experimental part:
as §1, §2

For test [4], the system named is HIV mutant strain Mutant 3. As to the kind of experiment: cellular assay using MT4-LTR-EGFP cells for anti-viral activity, mutant 3. To be noted: Human immunodeficiency virus 1, 72 h, read-out: pEC50 Mutant 3 (converted). As for the experimental part: as §1, §2
For test [5], the system named is HIV mutant strain Mutant 4. The experiment in a line: cellular assay using MT4-LTR-EGFP cells for anti-viral activity, mutant 4. As to conditions: Human immunodeficiency virus 1, 72 h, read-out: pEC50 Mutant 4 (converted). The method, then:
as §1, §2

Each structure is given as a SMILES string.

Regarding `CC(C)CN(C[C@@H](O)[C@H](Cc1ccccc1)NC(=O)O[C@H]1CO[C@H]2OC[C@H](OCc3ccccc3)[C@H]21)S(=O)(=O)c1ccc(N)cc1` [Compound 13, {3-[(4-amino-benzenesulfonyl)-isobutyl-amino]-1-benzyl-2-hydroxy-propyl}-carbamic acid 4-benzyloxy-hexahydro-furo[2,3-b]furan-3-yl ester], the EC50 was 1.58 nM in test [1]; 10 nM in test [2]; 316 nM in test [3]; 126 nM in test [4]; 2000 nM in test [5].

Consider `CC(C)CN(C[C@@H](O)[C@H](Cc1ccccc1)NC(=O)O[C@H]1CO[C@H]2OCC[C@H]21)S(=O)(=O)c1ccc(N)cc1` [TMC 114, (3R,3aS,6aR)-hexahydrofuro[2,3-b]furan-3-yl N-[(1S,2R)-1-benzyl-2-hydroxy-3-(N1-isobutylsulfanilamido)propyl]carbamate, reference compound], for which the EC50 was 8.13 nM in test [2], 794 nM in test [3] and 3720 nM in test [5].
